According to paper PMC2864300, “Regulation of NOXO1 Activity through Reversible Interactions with p22^phox and NOXA1” (PLoS ONE, 2010):
pKd: −log10 of the molar value. Where a SMILES comes first, the peptide text is derived from it. Where no end group is shown, it is not given here.

Legend:
[1] = test system: mouse proteins (NOX1 system); details: ref [32]–[34]; cited from earlier work
human NOX1 = details: ref [32]–[34]; cited from earlier work
[2] = target: T1, tandem SH3 domains of human NOXO1 (Homo sapiens, UniProt Q8NFA2); assay: ITC, binding to human NOXO1 tandem SH3 domains; details: 18°C; for pKd: pH 7.4, titrated against tandem SH3 domains
T1 construct: was titrated against the tandem SH3 domains as well as against the individual SH3A and SH3B domains; GST (N, cleaved yes); made in house; host or cells: Escherichia coli BL21 STAR
T1 sequence (Q8NFA2 157-290 isoform Q8NFA2-4): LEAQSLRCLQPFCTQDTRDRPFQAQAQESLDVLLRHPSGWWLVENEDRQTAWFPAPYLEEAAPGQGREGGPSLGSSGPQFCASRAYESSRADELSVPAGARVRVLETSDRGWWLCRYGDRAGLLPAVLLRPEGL
Experimental: (§1) Complex formation between NOXO1, NOXA1 and p22^phox fragments or peptides were measured by isothermal titration calorimetry using a MicroCal VP-ITC calorimeter (MicroCal Inc., Northampton, USA). All proteins were dialysed against ITC buffer (150 mM NaCl, 1 mM DTT and 50 mM HEPES, pH 7.4) and performed at 18°C. All peptides were dissolved in ITC buffer. Typically, 20–40 µM of protein in the cell was titrated by stepwise injections of a total of 200–300 µM of the ligand. Heats of dilution were determined by titrating protein or peptide into ITC buffer and subtracted from the raw ITC data prior to analysis with the software, Origin version 7.0, assuming a single-site binding model. Data were averaged over three to five experiments.

[3] = test system: interaction between NOXO1 and p22^phox; details: cited from earlier work
Source text: In this study we provide evidence that the assembly of the NOX1 oxidase complex can be regulated through reversible protein-protein interactions. […] However, the inhibitory effect of the C-terminal tail is less pronounced in NOXO1 than in the homologous p47^phox subunit of the phagocytic oxidase, and may explain why the NOX1 system is capable of producing low levels of superoxide, in a constitutive ...

human NOXA1 SH3 = target: T2, human NOXA1 SH3 (Homo sapiens, UniProt Q86UR1); assay: ITC, binding to human NOXA1 SH3; details: 18°C, 150 mM NaCl, 1 mM DTT, 50 mM HEPES, pH 7.4, peptide in syringe, human NOXA1 SH3 in cell, averaged over three to five experiments, read-out: K (Kd)
T2 construct: GST (N, cleaved yes); made in house; host or cells: Escherichia coli BL21 STAR
T2 sequence (Q86UR1 399-458 limits assumed): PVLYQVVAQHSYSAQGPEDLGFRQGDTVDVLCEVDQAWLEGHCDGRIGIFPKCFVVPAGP
Experimental: as §1

## CCCCCCCCCCCCCC(=O)O[C@@H]1[C@@H](C)[C@@]2(O)[C@@H](C=C(CO)C[C@]3(O)C(=O)C(C)=C[C@@H]23)[C@@H]2C(C)(C)[C@]12OC(C)=O [PMA]
[1]
  superoxide production with the mouse proteins: a similar increase could not be observed with the mouse proteins
Human NOX1
  superoxide production by human NOX1: increased

## CC[C@H](C)[C@H](NC(=O)[C@H](C)NC(=O)CNC(=O)[C@@H]1CCCN1C(=O)[C@H](CO)NC(=O)[C@@H]1CCCN1C(=O)[C@H](CCCNC(=N)N)NC(=O)[C@@H](NC(=O)[C@@H]1CCCN1C(=O)[C@@H](NC(=O)[C@@H](NC(=O)[C@@H]1CCCN1C(=O)[C@@H]1CCCN1C(=O)[C@@H]1CCCN1C(=O)[C@H](C)NC(=O)[C@@H](N)[C@@H](C)O)[C@@H](C)O)C(C)C)[C@@H](C)O)C(=O)N[C@@H](CCC(N)=O)C(=O)N[C@@H](CO)C(=O)N[C@@H](CCCNC(=N)N)C(=O)N[C@@H](CS)C(=O)N[C@@H](CS)C(=O)N[C@H](C(=O)N[C@H](C(=O)N[C@H](C(=O)N[C@@H](CCCNC(=N)N)C(=O)N[C@@H](CCCNC(=N)N)C(=O)N[C@@H](C)C(=O)N[C@@H](CC(C)C)C(=O)N[C@@H](CCC(=O)O)C(=O)O)[C@@H](C)O)C(C)C)[C@@H](C)O [PeptideA] (H-TAPPPTVPTRPSPGAIQSRCCTVTRRALE-OH)
[2]
  pKd: ~4.30

## CCCCC/C=C\C/C=C\C/C=C\C/C=C\CCCC(=O)O [arachidonic acid]
[3]
  effect on interaction between NOXO1 and p22^phox: could increase the interaction between NOXO1 and p22^phox

## ERRPRRQGRPRG [peptide corresponding to basic region, residues 347–359, of C-terminal tail of human NOXO1]
[2]; pH 7.4, data not shown
  binding to the tandem SH3 domains (qualitative): no binding was detected

## TAPPPTVPTRPS [PeptideA-short]
[2]
  pKd: ~4.30
Human NOXA1 SH3
  pKd: < 4.15
